This note sets out measurements from patent US20230346831A1, “METHODS FOR TREATING […] USING LOW DOSE CARBON MONOXIDE” (priority 2020, published 2023).

The subject of one experiment is MDA-MB-231/TGL cells. Kind of experiment: experimental tail vein lung metastasis assay, human breast cancer xenograft. It is filed as in vivo, NSG mice. The protocol: NSG mice were generated by the Jackson Laboratory. All mice were housed in accordance with the institutional guidelines. All procedures involving mice were approved by the institutional animal care and use committee of Weill Cornell Medicine. 1 × 10^5 or 5 × 10^4 MDA-MB-231/TGL cells in 150 µl PBS were injected into the tail veins of female NSG mice at the age of 7-8 weeks (n=5/group for 1× 10^5 cells and n = 6/group for 5 × 10^4 cells). 1× 10^4 8988T/TGL cells in 100 µl PBS were injected into spleen of NSG mice at age of 7-8 weeks (n=4/group, male and female) to observe the liver metastasis (G. Zhang, & Y. N. Du, Methods Mol Biol 1882, 309-320 (2019)). The spleen was removed after the injection. Starting one day after injection, mice were randomized into two groups. One group was kept in a regular mouse holding room (control), and the other group was put into a chamber delivering 250 ppm CO 3 hours daily. Mice were subjected to bioluminescent imaging using the In Vivo Imaging System Spectrum (PerkinElmer, Waltham, MA) at 0, 1, 3 days and then weekly after tumor cells were injected until the final time points, as described previously by Y. C. Du, D. S. Klimstra, & H. Varmus, PLoS One 4, e6932 (2009)). Luciferase signals were transformed to nature log scale before analysis. GEE method was used to test the overall difference of tumor growth over time. All analyses were performed in statistical software SAS Version 9.4 (SAS Institute, Cary, NC).
Mouse tissues were removed and fixed in 10% buffered formalin overnight at room temperature. Formalin-fixed/paraffin-embedded sections (5-µm) were deparaffinized and rehydrated by passage through a graded xylene/ethanol series before staining. Immunochemistry was performed using the VECTASTAIN Elite ABC kit following the manufacturer’s instructions. Tumor number and tumor size were quantified by scanning the whole tissue slide of each mouse under microscope. The size of tumor area of each tumor was measured by the cellSens imaging software (Olympus, Tokyo, Japan). Total tumor area of each mouse or total tumor number of each mouse was plotted. The primary antibodies used were cleaved caspase 3 (1:333; Cell Signaling Tech (Cat. No. 9661), Danvers, MA) and Ki67 (1:1000, Vector Labs (Cat. No. VP-K451), Burlingame, CA).
To determine whether 250 ppm CO inhibits cancer metastasis in vivo, an experimental tail vein metastasis assay with TNBC MDA-MB-231 cell line was performed. 0.1 million MDA-MB-231/TGL (luciferase reporter) cells were injected into the tail vein of the NOD/scid-lL2Rgc knockout (NSG) immunodeficient mice. Mice were randomly divided in to two groups after injection. […]
(In general: Xenograft models place foreign cells or tissue in a host animal.)

The test system of another experiment is HiF1α. Kind of experiment: Western blot analysis. It is filed as cell-based, human. The conditions noted are these: MCF7/TGL and MDA-MB-231/TGL cells; 250 ppm CO for 16 hours vs standard incubator. The protocol: 1.5 × 10^6 cells were seeded in 6-cm cell culture plates with DMEM containing 10% FBS, 0.2 mM L-glutamine and 1% penicillin/streptomycin. Additionally, MCF7/TGL/pQ was cultured in media containing 0.5 µgml^-1 puromycin and 25 mM HEPES. After 16 hours of incubation, cells were lysed with RIPA buffer (0.1% SDS, 1% TritonX-100, 0.5% sodium deoxycholate, 25 mM Tris pH 8.0, 150 mM NaCl, and 1 mM EDTA) supplemented with a protease inhibitor mixture and PhosSTOP (Roche, Basel, Switzerland). Proteins were quantified with Bradford assay (Bio-Rad, Hercules CA). Equal amounts of proteins were separated with SDS-PAGE and transferred to nitrocellulose membranes. […] Protein bands were visualized by enhanced chemical luminescence (Pierce, Dallas, TX).
To investigate whether 250 ppm CO induces hypoxia, HiF1α protein levels in low-dose CO-treated MCF7/TGL and MDA-MB-231/TGL cells were examined. […] To assess the intracellular heme levels affected by low-dose CO treatment, oxidized heme levels in the form of hemin (Fe^3+ state) were measured because free heme (Fe^2+ state) is readily oxidized and cannot be measured. […]
Background: In western blotting, separated proteins are transferred to a membrane and probed.

As for `[C-]#[O+]` [CO, Carbon monoxide], the “metastatic tumor burden in lung sections (histological analysis)” value is given as “significantly lower” in the experiment with MDA-MB-231/TGL cells (0.1 million MDA-MB-231/TGL cells tail vein, NSG mice, 250 ppm CO gas 3 hours daily, 23-day time point, vs control) and “significantly lower” in the experiment with MDA-MB-231/TGL cells (5 × 10^4 MDA-MB-231/TGL cells tail vein, 250 ppm CO 3 hours daily, 7 days/week, 25 days after the injection). The “appearance / signs of sickness of the mice” value in the experiment with MDA-MB-231/TGL cells (0.1 million MDA-MB-231/TGL cells tail vein, 250 ppm CO 3 hours daily, control group lethargic after 23 days) was “looked healthy and had no signs of sickness”. In the experiment with MDA-MB-231/TGL cells (5 × 10^4 MDA-MB-231/TGL cells tail vein, 250 ppm CO 3 hours daily, 7 days/week, imaging to 3 weeks, P = 0.0016, GEE method), the “bioluminescent signals (whole mice) over time” value is reported as “significantly lower”. In the experiment with HiF1α, the HiF1α protein levels result was “not changed”.
